According to patent publication US8093229B2, “Alkynyl pyrrolo[2,3-d]pyrimidines and related analogs as HSP90-inhibitors” (Conforma Therapeutics Corporation, priority 2005, dated 2012):

Columns and labels:
Format in all cases: cell-based
[1] = test system: HER2/Neu protein; assay: Her2 degradation assay; conditions: MCF7 cells, 16 h
Description: [drawing 219] wherein R^3′ is not alkynyl, which were disclosed in U.S. patent application Ser. No. 10/945,851 and PCT Application US04/31248. The pyrrolopyrimidine compounds specified in the EXAMPLE sections of the above patent applications carry either no substituent or a substituted alkyl group. […] A simple alkyl or a substituted alkyl at C-5 (ie R^3=alkyl or substituted alkyl) can only bring two-fold additional activity. Conversely, if C-5 is alkyne substituted, the potency increases approximately 10-20 fold. (See, Series A: compounds A, B, C and D below).
Many cancers are associated with the over expression Her2 protein. It has been shown that compounds able to diminish Her2 levels show good promise as anti-cancer agents.
MCF7 breast carcinoma cells (ATCC) were grown in Dulbecco's modified Eagle's medium (DMEM) containing 10% fetal bovine serum (FBS) and 10 mM HEPES, and plated in 24 well plates (50% confluent). […] Samples were analyzed using a FACSCalibur™ flow cytometer (Becton Dickinson, San Jose, Calif.) equipped with Argon-ion laser that emits 15 mW of 488 nm light for excitation of the PE fluorochrome. […] A fluorescence histogram was generated and the mean fluorescence intensity (MFI) of each sample was determined using Cellquest software. […] Percent degradation of Her2 was calculated as follows: % Her2 degraded=[(MFI untreated cells−MFI treated cells)/MFI untreated cell]×100. […]

[2] = test system: MCF7 breast carcinoma cells; assay: MTS assay / secondary assay of killing tumor cells, MCF7; conditions: for IC50: Homo sapiens, MCF7
Description: (§1) The difference in potency index between alkynes and non-alkynes measured by a secondary assay is also striking. The secondary assay measures the efficiency of killing tumor cells. […] EC50 is defined as the amount of compound added to effect a 50% reduction in viable cell number. Selected compounds were tested on cells of MCF7 and BT474 breast tumor cell lines. […] TABLE 2 summarized the result of the assay.
(§2) 3-(4,5-dimethylthiazol-2-yl)-5-(3-carboxymethoxyphenyl)-2-(4-sulfophenyl)-2H-tetrazolium assays measure the cytotoxicity of geldanamycin derivatives. MTS (3-(4,5-dimethylthiazol-2-yl) -5-(3-carboxymethoxyphenyl)-2-(4-sulfophenyl)-2H-tetrazolium) is a tetrazolium dye that is converted to a formazan product by dehydrogenase enzymes of metabolically active cells (Corey, A. et al. “Use of an aqueous soluble tetrazolium/formazan assay for cell growth assays in culture,” Cancer Commun. 1991, 3, 207-212). Cells were seeded in 96 well plates at 2000 cells/well and allowed to adhere overnight in Dulbecco's modified Eagle's medium supplemented with 10% fetal bovine serum. The final culture volume was 100 μl. Viable cell number was determined by using the Celltiter 96 AQueous Non-radioactive Cell Proliferation Assay (Promega, Madison Wis.). The MTS/PMS (phenazine methosulfate) solution was mixed at a ratio of 20:1, and 20 μL was added per well to 100 μl of culture medium. After 2-4 hours, the formation of the formazan product was measured at 490 nm absorbance using a multiwell plate spectrophotometer. Background was determined by measuring the Abs 490 nm of cell culture medium and MTS-PMS in the absence of cells and was subtracted from all values. Percent viable cells was calculated as follows: % viable cells=(Abs at 490 nm treated cells/Abs at 490 nm untreated cells)×100
The effect of selected compounds of the invention on MCF7 breast carcinoma cells according to the MTS assay is summarized in table 3. IC50 was defined as the concentration of the compound which gave rise to 50% reduction in viable cell number.

[3] = test system: BT474 breast tumor cell line; assay: MTS assay / secondary assay of killing tumor cells, BT474; conditions: Homo sapiens, BT-474
Description: as §1, §2

IC50 [1] | Compound | IC50 [2] | IC50 [3] | potency index relative to 17-AAG ([2]; cell line not specified, MCF7 and BT474 tested)
12 nM | COc1c(C)cnc(Cn2cc(C#CCO)c3c(Cl)nc(N)nc32)c1C [Example 1, 3-[2-amino-4-chloro-7-(4-methoxy-3,5-dimethyl-pyridin-2-ylmethyl)-7H-pyrrolo [2,3-d]pyrimidin-5-yl]-prop-2-yn-1-ol] | 130 nM | 20 nM | –
– | COc1c(C)cnc(Cn2cc(C#CCCO)c3c(Cl)nc(N)nc32)c1C [Example 2, 4-[2-Amino-4-chloro-7-(4-methoxy-3,5-dimethyl-pyridin-2-ylmethyl)-7H-pyrrolo[2,3-d]pyrimidin-5-yl]-but-3-yn-1-ol] | 13 nM | 6 nM | –
– | COc1c(C)cnc(Cn2cc(C#CCCCO)c3c(Cl)nc(N)nc32)c1C [Example 3, 5-[2-Amino-4-chloro-7-(4-methoxy-3,5-dimethyl-pyridin-2-ylmethyl)-7H-pyrrolo[2,3-d]pyrimidin-5-yl]-pent-4-yn-1-ol] | 13 nM | 8 nM | –
55 nM | COc1c(C)cnc(Cn2cc(C#CCN(C(C)C)C(C)C)c3c(Cl)nc(N)nc32)c1C [Example 5, 4-Chloro-5-(3-diisopropylamino-prop-1-ynyl)-7-(4-methoxy-3,5-dimethyl-pyridin-2-ylmethyl)-7H-pyrrolo[2,3-d]pyrimidin-2-ylamine] | 100 nM | 80 nM | –
– | COc1c(C)cnc(Cn2cc(C#CCCCCO)c3c(Cl)nc(N)nc32)c1C [Example 7, 6-[2-Amino-4-chloro-7-(4-methoxy-3,5-dimethyl-pyridin-2-ylmethyl)-7H-pyrrolo[2,3-d]pyrimidin-5-yl]-hex-5-yn-1-ol] | 200 nM | 20 nM | –
– | CCN(CC)C(=O)CCC#Cc1cn(Cc2ncc(C)c(OC)c2C)c2nc(N)nc(Cl)c12 [Example 10] | 700 nM | 50 nM | –
– | COc1c(C)cnc(Cn2cc(C#CCCC(=O)N3CCN(C)CC3)c3c(Cl)nc(N)nc32)c1C [Example 11] | 100 nM | 20 nM | –
– | COc1c(C)cnc(Cn2cc(C#CCCC(N)=O)c3c(Cl)nc(N)nc32)c1C [Example 12, 5-[2-Amino-4-chloro-7-(4-methoxy-3,5-dimethyl-pyridin-2-ylmethyl)-7H-pyrrolo[2,3-d]pyrimidin-5-yl]-pent-4-ynoic acid amide] | 30 nM | 20 nM | –
– | COc1c(C)cnc(Cn2cc(C#CCCCNC(=O)OC(C)(C)C)c3c(Cl)nc(N)nc32)c1C [Example 15, {5-[2-Amino-4-chloro-7-(4-methoxy-3,5-dimethyl-pyridin-2-ylmethyl)-7H-pyrrolo [2,3-d]pyrimidin-5-yl]-pent-4-ynyl}-carbamic acid tert-butyl ester] | 60 nM | 1000 nM | –
– | COc1c(C)cnc(Cn2cc(C#CCCCN)c3c(Cl)nc(N)nc32)c1C [Example 16, 5-(5-Amino-pent-1-ynyl)-4-chloro-7-(4-methoxy-3,5-dimethyl-pyridin-2-ylmethyl)-7H-pyrrolo [2,3-d]pyrimidin-2-ylamine] | 90 nM | > 10000 nM | –
– | COc1c(C)cnc(Cn2cc(C#CCCCN3C(=O)c4ccccc4C3=O)c3c(Cl)nc(N)nc32)c1C [Example 17] | 10 nM | 100 nM | –
– | COc1c(C)cnc(Cn2cc(C#CCCN3CCOCC3)c3c(Cl)nc(N)nc32)c1C [Example 18] | 50 nM | 1000 nM | –
– | COc1c(C)cnc(Cn2cc(C#CCCCN3CCOCC3)c3c(Cl)nc(N)nc32)c1C [Example 19] | 100 nM | 1000 nM | –
– | COc1c(C)cnc(Cn2cc(C#CCCNC(C)(C)C)c3c(Cl)nc(N)nc32)c1C [Example 20, 5-(4-tert-Butylamino-but-1-ynyl)-4-chloro-7-(4-methoxy-3,5-dimethyl-pyridin-2-ylmethyl) -7H-pyrrolo[2,3-d]pyrimidin-2-ylamine] | 130 nM | 23 nM | –
– | COc1c(C)cnc(Cn2cc(C#CCCCNC(C)(C)C)c3c(Cl)nc(N)nc32)c1C [Example 21, 5-(5-tert-Butylamino-pent-1-ynyl)-4-chloro-7-(4-methoxy-3,5-dimethyl-pyridin-2-ylmethyl) -7H-pyrrolo[2,3-d]pyrimidin-2-ylamine] | 230 nM | 30 nM | –
– | COc1c(C)cnc(Cn2cc(C#CCOC(=O)CN(C)C)c3c(Cl)nc(N)nc32)c1C [Example 22, Dimethylamino-acetic acid 3-[2-amino-4-chloro-7-(4-methoxy-3,5-dimethyl-pyridin-2-ylmethyl)-7H-pyrrolo[2,3-d]pyrimidin-5-yl]-prop-2-ynyl ester] | 200 nM | 20 nM | –
– | COc1c(C)cnc(Cn2cc(C#CCCN3C(=O)c4ccccc4C3=O)c3c(Cl)nc(N)nc32)c1C [H] | – | – | more potent than 17-AAG
